Data as given in the NIST ThermoML archive (doi:10.1021/je900550v).

Conditions: 101.33 kPa, Liquid; for speed of sound: Pulse-echo method; for mass density: Vibrating tube method

CCC(=O)[O-].C[NH2+]CCO [2-hydroxy-N-methylethanaminium propionate]
Conditions	mass density [kg/m3]	speed of sound [m/s]	viscosity [mPa·s]
278.15 K	1084.28	1752.4	–
278.4 K	1084.12	1751.6	–
278.65 K	1083.96	1750.7	–
278.9 K	1083.8	1749.8	–
279.15 K	1083.63	1749	–
279.4 K	1083.47	1748.1	–
279.65 K	1083.31	1747.3	–
279.9 K	1083.15	1746.5	–
280.15 K	1082.98	1745.6	–
280.4 K	1082.82	1744.8	–
280.65 K	1082.66	1744	–
280.9 K	1082.5	1743.1	–
281.15 K	1082.34	1742.3	–
281.4 K	1082.18	1741.5	–
281.65 K	1082.02	1740.7	–
281.9 K	1081.86	1739.8	–
282.15 K	1081.69	1739	–
282.4 K	1081.53	1738.2	–
282.65 K	1081.37	1737.4	–
282.9 K	1081.21	1736.6	–
283.15 K	1081.05	1735.8	–
283.4 K	1080.88	1735	–
283.65 K	1080.72	1734.2	–
283.9 K	1080.56	1733.4	–
284.15 K	1080.39	1732.6	–
284.4 K	1080.23	1731.8	–
284.65 K	1080.07	1731	–
284.9 K	1079.91	1730.2	–
285.15 K	1079.75	1729.4	–
285.4 K	1079.59	1728.5	–
285.65 K	1079.42	1727.8	–
285.9 K	1079.25	1727	–
286.15 K	1079.09	1726.2	–
286.4 K	1078.93	1725.5	–
286.65 K	1078.76	1724.7	–
286.9 K	1078.6	1723.9	–
287.15 K	1078.44	1723.1	–
287.4 K	1078.28	1722.4	–
287.65 K	1078.11	1721.6	–
287.9 K	1077.95	1720.8	–
288.15 K	1077.79	1720	432.13
288.4 K	1077.62	1719.3	–
288.65 K	1077.46	1718.5	–
288.9 K	1077.3	1717.7	–
289.15 K	1077.13	1717	–
289.4 K	1076.97	1716.2	–
289.65 K	1076.81	1715.4	–
289.9 K	1076.64	1714.7	–
290.15 K	1076.48	1713.9	–
290.4 K	1076.31	1713.2	–
290.65 K	1076.15	1712.4	359.06
290.9 K	1075.98	1711.6	–
291.15 K	1075.82	1710.9	–
291.4 K	1075.65	1710.1	–
291.65 K	1075.49	1709.3	–
291.9 K	1075.33	1708.6	–
292.15 K	1075.16	1707.8	–
292.4 K	1075	1707.1	–
292.65 K	1074.83	1706.4	–
292.9 K	1074.67	1705.6	–
293.15 K	1074.5	1704.9	301.63
293.4 K	1074.34	1704.1	–
293.65 K	1074.17	1703.4	–
293.9 K	1074.01	1702.6	–
294.15 K	1073.84	1701.9	–
294.4 K	1073.68	1701.1	–
294.65 K	1073.51	1700.4	–
294.9 K	1073.35	1699.7	–
295.15 K	1073.18	1698.9	–
295.4 K	1073.02	1698.2	–
295.65 K	1072.86	1697.4	256.14
295.9 K	1072.7	1696.7	–
296.15 K	1072.54	1695.9	–
296.4 K	1072.38	1695.2	–
296.65 K	1072.22	1694.5	–
296.9 K	1072.07	1693.7	–
297.15 K	1071.9	1693	–
297.4 K	1071.74	1692.2	–
297.65 K	1071.59	1691.5	–
297.9 K	1071.43	1690.7	–
298.15 K	1071.27	1690	215.06
298.4 K	1071.11	1689.3	–
298.65 K	1070.95	1688.5	–
298.9 K	1070.79	1687.8	–
299.15 K	1070.63	1687	–
299.4 K	1070.47	1686.3	–
299.65 K	1070.31	1685.5	–
299.9 K	1070.15	1684.8	–
300.15 K	1069.99	1684.1	–
300.4 K	1069.83	1683.3	–
300.65 K	1069.67	1682.6	182.88
300.9 K	1069.51	1681.8	–
301.15 K	1069.35	1681.1	–
301.4 K	1069.18	1680.3	–
301.65 K	1069.02	1679.6	–
301.9 K	1068.86	1678.9	–
302.15 K	1068.69	1678.1	–
302.4 K	1068.53	1677.4	–
302.65 K	1068.38	1676.7	–
302.9 K	1068.21	1675.9	–
303.15 K	1068.05	1675.2	158.24
303.4 K	1067.89	1674.5	–
303.65 K	1067.73	1673.7	–
303.9 K	1067.57	1673	–
304.15 K	1067.4	1672.3	–
304.4 K	1067.24	1671.5	–
304.65 K	1067.08	1670.8	–
304.91 K	1066.92	1670.1	–
305.15 K	1066.76	1669.3	140.88
305.4 K	1066.59	1668.6	–
305.65 K	1066.42	1667.9	–
305.9 K	1066.27	1667.1	–
306.15 K	1066.1	1666.4	–
306.4 K	1065.94	1665.7	–
306.65 K	1065.77	1664.9	–
306.9 K	1065.61	1664.2	–
307.15 K	1065.45	1663.5	–
307.4 K	1065.28	1662.7	–
307.65 K	1065.12	1662	–
307.9 K	1064.95	1661.2	–
308.15 K	1064.8	1660.5	118
308.4 K	1064.63	1659.8	–
308.65 K	1064.46	1659	–
308.9 K	1064.3	1658.3	–
309.15 K	1064.14	1657.6	–
309.4 K	1063.97	1656.8	–
309.65 K	1063.81	1656.1	–
309.9 K	1063.64	1655.4	–
310.15 K	1063.48	1654.6	105.84
310.4 K	1063.31	1653.9	–
310.65 K	1063.15	1653.1	–
310.91 K	1062.98	1652.4	–
311.16 K	1062.82	1651.7	–
311.4 K	1062.65	1650.9	–
311.65 K	1062.49	1650.2	–
311.91 K	1062.33	1649.4	–
312.16 K	1062.16	1648.7	–
312.41 K	1061.99	1648	–
312.66 K	1061.83	1647.2	–
312.91 K	1061.66	1646.5	–
313.15 K	–	–	93.38
313.16 K	1061.5	1645.7	–
313.4 K	1061.33	1645	–
313.66 K	1061.17	1644.2	–
313.9 K	1061	1643.5	–
314.15 K	1060.84	1642.8	–
314.4 K	1060.67	1642	–
314.65 K	1060.5	1641.3	–
314.9 K	1060.34	1640.5	–
315.15 K	1060.17	1639.8	–
315.41 K	1060.01	1639	–
315.65 K	1059.84	1638.3	81.2
315.91 K	1059.67	1637.6	–
316.16 K	1059.51	1636.8	–
316.41 K	1059.34	1636.1	–
316.66 K	1059.18	1635.4	–
316.91 K	1059.01	1634.6	–
317.16 K	1058.84	1633.9	–
317.4 K	1058.67	1633.2	–
317.66 K	1058.51	1632.4	–
317.91 K	1058.34	1631.7	–
318.15 K	–	–	70.3
318.16 K	1058.17	1630.9	–
318.41 K	1058.01	1630.2	–
318.65 K	1057.84	1629.4	–
318.9 K	1057.67	1628.7	–
319.16 K	1057.51	1628	–
319.41 K	1057.34	1627.2	–
319.65 K	1057.17	1626.5	64.18
319.91 K	1057	1625.7	–
320.16 K	1056.83	1624.9	–
320.41 K	1056.67	1624.2	–
320.65 K	1056.5	1623.4	–
320.91 K	1056.33	1622.7	–
321.15 K	1056.16	1622	–
321.41 K	1056	1621.2	–
321.66 K	1055.83	1620.4	–
321.9 K	1055.66	1619.7	–
322.15 K	1055.49	1618.9	–
322.41 K	1055.32	1618.2	–
322.65 K	1055.15	1617.5	–
322.91 K	1054.99	1616.7	–
323.15 K	–	–	55.1
323.16 K	1054.82	1616	–
323.41 K	1054.65	1615.2	–
323.65 K	1054.48	1614.5	–
323.91 K	1054.31	1613.7	–
324.16 K	1054.15	1613	–
324.41 K	1053.97	1612.2	–
324.65 K	1053.81	1611.4	–
324.9 K	1053.64	1610.7	–
325.16 K	1053.47	1609.9	–
325.4 K	1053.3	1609.2	–
325.66 K	1053.13	1608.4	–
325.9 K	1052.96	1607.7	–
326.16 K	1052.79	1606.9	–
326.41 K	1052.62	1606.2	–
326.66 K	1052.45	1605.4	–
326.9 K	1052.29	1604.7	–
327.16 K	1052.12	1603.9	–
327.4 K	1051.94	1603.2	–
327.66 K	1051.78	1602.4	–
327.9 K	1051.61	1601.7	–
328.15 K	1051.44	1600.9	–
328.41 K	1051.27	1600.2	–
328.66 K	1051.1	1599.4	–
328.9 K	1050.93	1598.6	–
329.16 K	1050.76	1597.9	–
329.4 K	1050.59	1597.1	–
329.65 K	1050.42	1596.4	–
329.9 K	1050.24	1595.6	–
330.16 K	1050.07	1594.9	–
330.41 K	1049.9	1594.1	–
330.66 K	1049.73	1593.3	–
330.91 K	1049.56	1592.6	–
331.16 K	1049.39	1591.8	–
331.41 K	1049.22	1591.1	–
331.66 K	1049.05	1590.3	–
331.91 K	1048.88	1589.5	–
332.16 K	1048.71	1588.8	–
332.41 K	1048.54	1588	–
332.66 K	1048.36	1587.3	–
332.91 K	1048.19	1586.5	–
333.16 K	1048.02	1585.7	–
333.41 K	1047.85	1585	–
333.66 K	1047.68	1584.2	–
333.91 K	1047.51	1583.5	–
334.16 K	1047.33	1582.7	–
334.41 K	1047.16	1582	–
334.66 K	1046.99	1581.2	–
334.91 K	1046.82	1580.5	–
335.16 K	1046.64	1579.7	–
335.41 K	1046.47	1579	–
335.66 K	1046.3	1578.2	–
335.91 K	1046.13	1577.5	–
336.16 K	1045.95	1576.7	–
336.41 K	1045.78	1576	–
336.66 K	1045.61	1575.2	–
336.9 K	1045.44	1574.4	–
337.16 K	1045.27	1573.7	–
337.4 K	1045.09	1572.9	–
337.66 K	1044.92	1572.1	–
337.9 K	1044.75	1571.3	–
338.15 K	1044.58	1570.6	–
